From patent US9234006B2, “Compounds” (Novacta Biosystems Limited, priority 2011, dated 2016)
Counter-ions that a name gives are not always drawn. Where a SMILES comes first, the peptide text is derived from it. Bridges are numbered along the chain shown (N, C = ends). [ ]: non-standard residue; d: D form. The star is where a group is joined. ξ: configuration not given here. ξβ3hGly(cHex) = NC(CC(=O)*)C1CCCCC1; Butanoyl(3ξ-OH) = CC(O)CC(=O)*; Thr(3ξ) = CC(O)[C@H](N)C(=O)O; Dab = NCC[C@H](N)C(=O)O; Ahp = NCCCCCCC(=O)O; βAla = NCCC(=O)O

Key:
[1] = system: E. coli ATCC25922; test: MIC susceptibility testing, broth microdilution in CaMHB; type: cell-based, Escherichia coli
Procedure, shortened: (§1)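 Colonies from fresh MHA grown overnight in CaMHB at 37° C, 250 rpm for 18-20 hours, diluted 100-fold and regrown to OD600 0.2-0.3 […]. Actively growing culture diluted 100-fold in fresh medium as inoculum; assays run in duplicate.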

[2] = system: P. aeruginosa ATCC27853; test: as above; type: cell-based, Pseudomonas aeruginosa
Procedure, shortened: as §1

[3] = system: K. pneumoniae ATCC 4352; test: as above; type: cell-based, Klebsiella pneumoniae
Procedure, shortened: as §1

[4] = system: A. baumannii ATCC19606; test: as above; type: cell-based, Acinetobacter baumannii
Procedure, shortened: as §1

[5] = system: HK-2 cell line; conditions: 24 h incubation, resazurin reduction; Table 7A; footnote c: solubility issues noted at top concentration
Procedure: The renal cell toxicity of the compounds was assessed in an in vitro assay using the HK-2 cell line, an immortalized proximal tubule cell line derived from a normal human kidney. The endpoint to describe the toxicity of the compounds was the reduction of resazurin correlating with the metabolic activity of the cells.
Cells were cultured in 150 cm^2 flasks in 25 mL supplemented KSF (with 5 ng/mL EGF and 50 μg/mL BPE). Cells were maintained at 70% confluence with a maximum of 25 passages. Day 1: Media was removed and cells were washed with 10 ml DPBS. […] After 1 to 2 minutes incubation, 14 ml media was added to the flask to inactivate the trypsin. The cell suspension was transferred to a centrifuge tube and the cells pelleted at 1000 rpm for 6 minutes. The cell pellet was then resuspended in fresh media supplemented with EGF and BPE. […] 7500 cells were dispensed in each well in a volume of 160 μl and incubated at 37° C. for 24 h.
Day 2: Test compounds were prepared directly into the media. […] The microtiter plates were removed from the incubator and the media replaced with 100 μl of the dilutions of the compound solution. Every set of concentration was done in triplicate, and positive and negative controls were added to each plate. The plates were then incubated for 24 h at 37° C. with 5% CO2 in a humidified atmosphere.
Day 3: The reagent containing the resazurin (CellTiter-Blue, Promega) was diluted in PBS (1:4) and added at 20% (v/v) to each well. The plates were then incubated at 37° C. for 2 h before the fluorescent reduction product was detected.
Media only background values were subtracted before the data was analysed using GraphPad Prism. Compound concentration values were plotted as log values to enable a dose-response curve to be fitted and IC50 values determined (Table 7).
The renal cell toxicity of the additional example compounds was assessed in an in vitro assay using the HK-2 cell as described in the example above.

[6] = system: E. coli ATCC700928; test: MIC susceptibility testing, broth microdilution in CaMHB; type: cell-based, Escherichia coli
Procedure, shortened: as §1

[7] = system: E. coli NCTC12900; test: as above; type: cell-based, Escherichia coli
Procedure, shortened: as §1

[8] = system: E. coli NCTC9001; test: as above; type: cell-based, Escherichia coli
Procedure, shortened: as §1

[9] = system: P. aeruginosa ATCC 9721; test: as above; type: cell-based, Pseudomonas aeruginosa
Procedure, shortened: as §1

[10] = system: P. aeruginosa ATCC10145; test: as above; type: cell-based, Pseudomonas aeruginosa
Procedure, shortened: as §1

[11] = system: P. aeruginosa ATCCCRM-9027; test: as above; type: cell-based, Pseudomonas aeruginosa
Procedure, shortened: as §1

[12] = system: K. pneumoniae ATCCBAA-1706; test: as above; type: cell-based, Klebsiella pneumoniae; conditions: Table 4
Procedure, shortened: as §1

[13] = system: K. pneumoniae NCTC7427; test: as above; type: cell-based, Klebsiella pneumoniae
Procedure, shortened: as §1

[14] = system: K. pneumoniae NCTC8172; test: as above; type: cell-based, Klebsiella pneumoniae
Procedure, shortened: as §1

[15] = system: A. baumannii ATCCBAA-747; test: as above; type: cell-based, Acinetobacter baumannii
Procedure, shortened: as §1

[16] = system: A. baumannii NCTC13423; test: as above; type: cell-based, Acinetobacter baumannii
Procedure, shortened: as §1

[17] = system: A. baumannii NCTC7844; test: as above; type: cell-based, Acinetobacter baumannii
Procedure, shortened: as §1

[18] = set-up: species or system rats; conditions: rat, in vivo, 8 mg/kg
Procedure: Colistin and the example compounds were prepared in saline. Compounds were introduced via the jugular canula twice a day 7 hours apart for seven days. […] The dose regimen is set out in Table 8 below.

[19] = Pharmacokinetic and urinary clearance studies in rats; type: in vivo; conditions: male, Sprague Dawley, rat, in vivo, iv, 1 mg/kg
Procedure: Drug solutions were prepared at 4 mg/mL in Normal Saline and the pH adjusted to 6-7 by adding the appropriate volume of 0.1 M H2SO4 or 4.2% NaHCO3. The solutions were filter-sterilized and stored at −80° C. before use. On the day of the experiment, drug solutions were diluted to 1 mg/mL with sterile Normal Saline.
Groups of 3 male Sprague Dawley rats were acclimatised for a minimum of 4 days before the study. Rats were anesthetized using isofluorane and a cannula was inserted into the jugular vein. One day after surgery, rats were dosed with an intravenous bolus injection of the solution at 1 mg/kg through the cannula, followed by washing with Normal Saline. Blood was collected manually through the cannula prior to administration of the compound and at 0.08, 0.25, 0.5, 1, 3, 6, 8 and 24 h thereafter. Plasma was harvested by centrifugation immediately after blood collection. Twenty-four hour urine samples were collected prior to and after administration of the compound in 0-4 h, 4-6 h, and 6-24 h intervals. Plasma and urine samples were frozen at −20° C.
Determination of the plasma and urine concentrations of the drug was performed by Liquid Chromatography Mass Spectrometry (LC-MS/MS). Before analysis the plasma and urine samples were prepared as follows. Plasma samples were thawed on the day of analysis and mixed with 3 volumes of acetonitrile containing 0.1% (v/v) formic acid and 100 ng/mL of internal standard. After centrifugation, supernatants were transferred to a 96-well plate and diluted 1:1 with water ready for analysis by LC-MS/MS. Urine samples were purified by solid-phase extraction (SPE) on Oasis HLB cartridges (Waters, UK) eluting with 100% methanol. An aliquot was transferred to a 96 well plate and diluted 1:1 with water before addition of internal standard solution, ready for analysis by LC-MS/MS.
The pharmacokinetic parameters were determined by non-compartmental analysis using WinNonLin v5.3. The urinary recovery was recorded as the percentage of intact drug recovered in the urine for the first 24 h after injection.

[20] = Table 4A, different batches of cation-adjusted Muller-Hinton broth
[21] = K. pneumoniae ATCC4352, Table 4A, different batches of cation-adjusted Muller-Hinton broth
[22] = P. aeruginosa ATCC 9721, Table 4
[23] = P. aeruginosa ATCCCRM-9027, Table 4
[24] = K. pneumoniae ATCC 4352, Table 4

| Compound | MIC [1, 20] [micrograms/mL] | MIC [2, 20] [micrograms/mL] | MIC [3, 21] [micrograms/mL] | MIC [4, 20] [micrograms/mL] | IC50 HK-2 cells [5] | MIC ([1]; Table 4) [micrograms/mL] | MIC ([6]; Table 4) [micrograms/mL] | MIC ([7]; Table 4) [micrograms/mL] | MIC [9, 22] [micrograms/mL] | MIC ([10]; Table 4) [micrograms/mL] | MIC ([2]; Table 4) [micrograms/mL] | MIC [11, 23] [micrograms/mL] | MIC [3, 24] [micrograms/mL] | MIC [12] [micrograms/mL] | MIC ([13]; Table 4) [micrograms/mL] | MIC ([14]; Table 4) [micrograms/mL] | MIC ([4]; Table 4) [micrograms/mL] | MIC ([15]; Table 4) [micrograms/mL] | MIC ([16]; Table 4) [micrograms/mL] | MIC ([17]; Table 4) [micrograms/mL] | further results |
| --- | --- | --- | --- | --- | --- | --- | --- | --- | --- | --- | --- | --- | --- | --- | --- | --- | --- | --- | --- | --- | --- |
| CC(C)C[C@@H]1NC(=O)[C@@H](Cc2ccccc2)NC(=O)[C@H](CCN)NC(=O)[C@@H](NC(=O)[C@H](CCN)NC(=O)[C@@H](NC(=O)CCCCCCN)C(C)O)CCNC(=O)[C@H](C(C)O)NC(=O)[C@H](CCN)NC(=O)[C@H](CCN)NC1=O (stereo partly shown) [Example 19, 7-Aminoheptanoyl polymyxin B nonapeptide] (H-[Ahp][Thr(3ξ)][Dab][Dab][Dab][dF]L[Dab][Dab][Thr(3ξ)]; lactam 4-C) | 1 | 0.25 | 2 | 16 | 157^c μg/mL | – | – | – | – | – | – | – | – | – | – | – | – | – | – | – | – |
| CC(C)C[C@@H]1NC(=O)[C@@H](Cc2ccccc2)NC(=O)[C@H](CCN)NC(=O)[C@@H](NC(=O)[C@H](CCN)NC(=O)[C@@H](NC(=O)CC(N)C2CCCCC2)C(C)O)CCNC(=O)[C@H](C(C)O)NC(=O)[C@H](CCN)NC(=O)[C@H](CCN)NC1=O (stereo partly drawn) [Example 14, [3(R,S)-3-Amino-3-cyclohexanepropanoyl] Polymyxin B Nonapeptide, Sulphate Salt] ({ξβ3hGly(cHex)}-[Thr(3ξ)][Dab][Dab][Dab][dF]L[Dab][Dab][Thr(3ξ)]; lactam 3-C) | 2 | 0.25 | 0.5 | – | – | 0.5 | 0.25 | 0.5 | 0.25 | 0.25 | 0.5 | 0.25 | 1 | 0.25 | 0.25 | 1 | 0.5 | 0.5 | 0.06 | 0.5 | MIC [6, 20]: 2 micrograms/mL; MIC [7, 20]: 4 micrograms/mL; MIC [8, 20]: 4 micrograms/mL; MIC ([9]; P. aeruginosa ATCC9721, Table 4A, different batches of cation-adjusted Muller-Hinton broth): 0.25 micrograms/mL; MIC [10, 20]: 0.5 micrograms/mL; MIC ([11]; P. aeruginosa AATCCRM 9027, Table 4A, different batches of cation-adjusted Muller-Hinton broth): 0.125 micrograms/mL; MIC [13, 20]: 0.5 micrograms/mL; MIC [14, 20]: >32 micrograms/mL; MIC [15, 20]: 0.5 micrograms/mL; MIC [16, 20]: 0.125 micrograms/mL; MIC [17, 20]: 0.5 micrograms/mL; levels of the renal biomarker NAG in urine compared to Colistin at the same dose regimen [18]: significantly reduced levels; levels of the renal biomarker albumin in urine compared to Colistin at the same dose regimen [18]: significantly reduced levels; levels of the renal biomarker cystatin C in urine compared to Colistin at the same dose regimen [18]: significantly reduced levels |
| CC(C)C[C@@H]1NC(=O)[C@@H](Cc2ccccc2)NC(=O)[C@H](CCN)NC(=O)[C@@H](NC(=O)[C@H](CCN)NC(=O)[C@@H](NC(=O)CN)C(C)O)CCNC(=O)[C@H](C(C)O)NC(=O)[C@H](CCN)NC(=O)[C@H](CCN)NC1=O (stereo partly shown) [Example 3, 2-Aminoethanoyl Polymyxin B Nonapeptide, Sulphate Salt] (H-G[Thr(3ξ)][Dab][Dab][Dab][dF]L[Dab][Dab][Thr(3ξ)]; lactam 4-C) | – | – | – | – | – | 2 | 4 | 8 | 0.125 | 0.25 | 0.5 | 0.125 | 1 | 16 | 0.5 | >32 | 2 | >32 | 16 | 16 | MIC ([8]; Table 4): 4 micrograms/mL |
| CC(C)C[C@@H]1NC(=O)[C@@H](Cc2ccccc2)NC(=O)[C@H](CCN)NC(=O)[C@@H](NC(=O)[C@H](CCN)NC(=O)[C@@H](NC(=O)CC(C)O)C(C)O)CCNC(=O)[C@H](C(C)O)NC(=O)[C@H](CCN)NC(=O)[C@H](CCN)NC1=O (stereo partly drawn) [Example 22, 3-(R,S)-3-Hydroxybutanoyl polymyxin B nonapeptide] ({Butanoyl(3ξ-OH)}-[Thr(3ξ)][Dab][Dab][Dab][dF]L[Dab][Dab][Thr(3ξ)]; lactam 3-C) | 4 | 0.5 | 8 | >32 | 500^c μg/mL | – | – | – | – | – | – | – | – | – | – | – | – | – | – | – | – |
| CC(C)C[C@@H]1NC(=O)[C@@H](Cc2ccccc2)NC(=O)[C@H](CCN)NC(=O)[C@@H](NC(=O)[C@H](CCN)NC(=O)[C@@H](NC(=O)CCN)C(C)O)CCNC(=O)[C@H](C(C)O)NC(=O)[C@H](CCN)NC(=O)[C@H](CCN)NC1=O (stereo partly shown) [Example 4, 3-Aminopropanoyl Polymyxin B Nonapeptide, Sulphate Salt] (H-[βAla][Thr(3ξ)][Dab][Dab][Dab][dF]L[Dab][Dab][Thr(3ξ)]; lactam 4-C) | – | – | – | – | – | 2 | 0.06 | 1 | 0.25 | 0.5 | 0.125 | 0.25 | 0.125 | 0.25 | 0.06 | 2 | 1 | 1 | 1 | 4 | MIC ([8]; Table 4): 0.25 micrograms/mL; AUC(0-inf) [19]: 2030 ng·h/mL; Cmax [19]: 2520 ng/mL; Vd [19]: 0.69 L/kg; clearance [19]: 8.2 mL/min/kg; half-life [19]: 1.33 h |
